Legend:
[1] = target: HIF-2α HIS TAG-PASB Domain; test: HIF-2α Scintillation Proximity Assay (SPA), probe displacement; assay type: binding
Description: The percent inhibition was determined and IC50 values were calculated using the Dotmatics system based on the following equation: % inhibition=[(high control−sample)/(high control−low control)]×100.

[2] = system: 786-O renal cell carcinoma cells; test: In vivo efficacy study, renal cell carcinoma 786-O xenograft model; design: species or system SCID/Biege mice
human VEGFA [3] = test: plasma human VEGF level of 786-O xenograft bearing mice; assay type: in vivo; details: 10, 30 and 100 mg/kg three times at 12 hour intervals, prior to treatment vs 12 h post treatment
786-O xenograft = test: tumor size in 786-O xenograft bearing mice, single agent; assay type: in vivo; details: 3, 10, 30 and 100 mg/kg BID for 20 days
[4] = system: HIF-2α and HIF-2α-regulated genes (PAI-1, CCND1, VEGFA, and GLUT1); test: mRNA levels in tumor of 786-O xenograft bearing mice; assay type: in vivo; details: renal cell carcinoma 786-O xenograft bearing mice; 10, 30 and 100 mg/kg three times at 12 hour intervals
human VEGFA [5] = test: In vivo PK/PD study: plasma level of human VEGFA by ELISA; design: species or system SCID/Biege mice; details: 10, 30 or 100 mg/kg oral gavage, three times at 12 hour intervals
Description: (§1) About 5×10^6 renal cell carcinoma 786-O tumor cells (ATCC® CRL-1932™, VHL and HIF-1α null cell line) in PBS and Matrigel (1:1 in volume) were injected subcutaneously at the right flanks of SCID/Biege mice at 6-7 weeks of age for xenograft development. When the xenografts reached about 450 mm^3 in size, the tumor bearing mice were randomly divided into 4 groups (n=4). Plasma was collected prior to treatment by retro-orbital bleeding. […] All animals were sacrificed at 12 hours post last dose. Tumor, kidney, and plasma were collected from each animal. Total RNA was extracted from the tumors and kidneys. The mRNA levels of HIF-1α, HIF-2α and their respective target genes were determined by qRT-PCR (FIG. 1).

[6] = system: EPO and PGK1 mRNA in mouse kidney; test: In vivo PK/PD study: mouse kidney mRNA levels by qRT-PCR; design: species or system SCID/Biege mice; details: oral gavage, three times at 12 hour intervals
Description: as §1

## O=S(=O)(c1ccc(Oc2ccc(F)c(Cl)c2)c2c1[C@H](O)C(F)(F)C2)C(F)F [Compound 26, (S)-4-(3-Chloro-4-fluorophenoxy)-7-((difluoromethyl)sulfonyl)-2,2-difluoro-2,3-dihydro-1H-inden-1-ol]
[1]
  IC50: < 5 nM

## CCN(CC)CCNC(=O)c1c(C)[nH]c(/C=C2\C(=O)Nc3ccc(F)cc32)c1C [Sutent, sutent, reference compound]
[2]; 40 mg/kg QD, after 20 days of dosing
  Tumor size Mean ± SEM: 211.59 mm^3

## N#Cc1cc(F)cc(Oc2ccc(S(=O)(=O)C(F)F)c3c2CC(F)(F)[C@H]3O)c1 [Compound 15, 3-[(1S)-7-(difluoromethylsulfonyl)-2,2-difluoro-1-hydroxy-indan-4-yl]oxy-5-fluoro-benzonitrile]
Human VEGFA [3]
  plasma level of human VEGFA: reduced
786-O xenograft
  tumor size: tumor size reduction and regression
[4]
  mRNA levels of HIF-2α and HIF-2α-regulated genes (PAI-1, CCND1, VEGFA, and GLUT1) in tumor: reduced
[2]; all treatment groups, 786-O xenograft model
  Reduction of tumor size vs vehicle (t-Test): statistically significant reduction
Human VEGFA [5]
  Human VEGFA in the plasma of 786-O tumor-bearing mice: significant reduction
[6]
  Level of EPO mRNA in mouse kidney: reduced
  mRNA level of PGK1 in mouse kidney: remained unchanged

Reference: patent US9908845B2, “Aryl ethers and uses thereof” (Peloton Therapeutics, Inc., priority 2013, dated 2018)
